# No end group written: not given here.
# Columns and labels:
# Format in all cases: cell-based
# [1] = test system: Staphylococcus aureus; assay: Antibacterial activity by microspectrophotometry; conditions: Gram +, 24 hours at 25° C., absorbance at 600 nm
# [2] = test system: Bacillus subtilis; assay: Antibacterial activity by microspectrophotometry; conditions: Gram +, 24 hours at 25° C., absorbance at 600 nm
# [3] = test system: Fusarium oxysporum L; assay: Antifungal activity, phytopathogenic fungi
# Experimental: (§1) Pure each strain of bacteria used (E. coli; M. luteus), an isolated […] is suspended in 10 ml of DIFCO PB medium (Poor Broth, Luria Bertani medium free of yeast extract) and incubated at 30° C. overnight with slow stirring.
# (§2) The bacteria to be tested are brought to an optical density at 600 nm of 0.001 in fresh culture medium. 10 μl of each fraction is deposited in microtitration plates in the presence of 100 μl of the bacterial suspension. After incubation for 24 hours at 25° C., the growth is evaluated by measuring the absorbance at 600 nm using a microtitration plate reader.
# (§3) Using the same protocol but with phytopathogenic fungi, the following results are obtained: […]
# [4] = test system: Botrytis petuniae; assay: Antifungal activity, phytopathogenic fungi
# Experimental: as §1, §2, §3
# [5] = test system: Alternaria dauci; assay: Antifungal activity, phytopathogenic fungi
# Experimental: as §1, §2, §3
# [6] = test system: Stemphyllium; assay: Antifungal activity, phytopathogenic fungi
# Experimental: as §1, §2, §3
# [7] = test system: Verticilium toreillis; assay: Antifungal activity, phytopathogenic fungi
# Experimental: as §1, §2, §3
# [8] = test system: Fusarium oxysporum meloni; assay: Antifungal activity, phytopathogenic fungi
# Experimental: as §1, §2, §3
# [9] = test system: Salmonella typhimurium; assay: Antibacterial activity by microspectrophotometry; conditions: Gram -, 24 hours at 25° C., absorbance at 600 nm
# [10] = test system: bovine red blood cells; assay: Hemolytic test; conditions: synthetic molecule
# Experimental: (§4) All of the antibacterial and hemolytic tests are carried out with the synthetic molecule.
# [11] = test system: porcine red blood cells; assay: Hemolytic test; conditions: synthetic molecule
# Experimental: as §4
# [12] = test system: Aerococcus viridans; assay: Antibacterial activity by microspectrophotometry; conditions: Gram +, 24 hours at 25° C., absorbance at 600 nm
# [13] = test system: Pseudomonas syringae pv syringae; assay: Antibacterial activity, phytopathogenic bacteria; conditions: same protocol
# Experimental: as §1, §2
# (§5) Using the same protocol but with phytopathogenic bacteria, the following results are obtained: […]
# [14] = test system: Xanthomonas campestris pv campestris; assay: Antibacterial activity, phytopathogenic bacteria; conditions: same protocol
# Experimental: as §1, §2, §5
# [15] = test system: Pseudomonas maculicola; assay: Antibacterial activity, phytopathogenic bacteria; conditions: same protocol
# Experimental: as §1, §2, §5
# [16] = test system: Xanthomonas phaseolica; assay: Antibacterial activity, phytopathogenic bacteria; conditions: same protocol
# Experimental: as §1, §2, §5
# [17] = test system: Xanthomonas vesicatoria 687.3; assay: Antibacterial activity, phytopathogenic bacteria; conditions: same protocol
# Experimental: as §1, §2, §5
# [18] = test system: Pseudomonas syringae; assay: Antibacterial activity, phytopathogenic bacteria; conditions: same protocol
# Experimental: as §1, §2, §5
# [19] = test system: Pseudomonas syr phaseoli; assay: Antibacterial activity, phytopathogenic bacteria; conditions: same protocol
# Experimental: as §1, §2, §5
# [20] = test system: Pseudomonas valerianella; assay: Antibacterial activity, phytopathogenic bacteria; conditions: same protocol
# Experimental: as §1, §2, §5
# [21] = test system: Xanthomonas vesicatoria B229RI; assay: Antibacterial activity, phytopathogenic bacteria; conditions: same protocol
# Experimental: as §1, §2, §5
# [22] = test system: Micrococcus luteus; assay: Antibacterial activity by microspectrophotometry
# Experimental: as §1, §2
# [23] = test system: Escherichia coli D31; assay: Antibacterial activity by microspectrophotometry; conditions: Escherichia coli D31, Gram -; 24 hours at 25° C., absorbance at 600 nm
# Experimental: as §1, §2
# [24] = test system: Escherichia coli D22; assay: Antibacterial activity by microspectrophotometry; conditions: Escherichia coli D22, Gram -; 24 hours at 25° C., absorbance at 600 nm
# Experimental: as §1, §2
# [25] = test system: Clavibacter michiganensis; assay: Antibacterial activity by microspectrophotometry
# Experimental: as §1, §2, §5
# [26] = medium supplemented with 1 mM CaCl2 and 20 mM KCl
substance,measurement,setting,value
androctonine (RSVCRQIKICRRRGGCYYLCTNRPY; disulfide (positions not given here)) [peptide from scorpion Androctonus australis hemolymph; 4 cysteine residues in two intramolecular disulfide bridges; tests done with the synthetic molecule],MIC,[1],15 to 30 µM
same,MIC,[2],1.5 to 3.0 µM
same,MIC with salts,[3]; [26],> 32 µM
same,MIC without salts,[3]; without salts,2 to 4 µM
same,MIC with salts,[4]; [26],> 32 µM
same,MIC without salts,[4]; without salts,4 to 8 µM
same,MIC with salts,[5]; [26],16 to 32 µM
same,MIC without salts,[5]; without salts,4.1 to 8.2 µM
same,MIC with salts,[6]; [26],16 to 32 µM
same,MIC without salts,[6]; without salts,4 to 8 µM
same,MIC with salts,[7]; [26],> 32 µM
same,MIC without salts,[7]; without salts,2 to 4 µM
same,MIC without salts,[8],2 to 4 µM
same,MIC,[9],3 to 6 µM
same,lytic effect on red blood cells,[10],no lytic effect
same,lytic effect on red blood cells,[11],no lytic effect
same,MIC,[12],0.3 to 0.6 µM
same,MIC,[13],15 to 22 µM
same,MIC,[14],3 to 6 µM
same,MIC,[15],3 to 6 µM
same,MIC,[16],1 to 2 µM
same,MIC,[17],1.5 to 3 µM
same,MIC,[18],0.5 to 1 µM
same,MIC,[19],2 to 4 µM
same,MIC,[20],15 to 22 µM
same,MIC,[21],1.5 to 3 µM
same,MIC,"[22]; Micrococcus luteus, Gram +, 24 hours at 25° C., absorbance at 600 nm",0.6 to 1.5 µM
same,antibacterial activity of synthetic molecule compared with native molecule,"[22]; bacterium Micrococcus liteus, synthetic (FMOC, renatured) vs native",same antibacterial activity as the native molecule
same,MIC,[23],3 to 6 µM
same,MIC,[24],> 30 µM
same,MIC,"[25]; Clavibacter michi ganensis, Gram +, Table 1, 24 hours at 25° C., absorbance at 600 nm",6 to 15 µM
same,MIC,"[25]; Clavibacter michiganensis, Table 2, phytopathogenic bacteria, same protocol",6 to 15 µM

# From US6127336A, “Antibacterial and antifungal peptide” (priority 1996, dated 2000)
